Results: ChEMBL document CHEMBL6109180, “De Novo-Designed APC/C Inhibitors Provide a Rationale for Targeting RING-Type E3 Ubiquitin Ligases” (J Med Chem, 2025)
Calls of active or inactive are those of the source. No cut-off for these calls is given here. Numbered stars: 1 amine (or outer) side, 2 acyl side, 3 side chain; on linkers, the order of the positions; unused ones are H or OH. Bridge positions count the residues as written; N and C are the ends. Square brackets hold non-standard residues; d marks the D form. Peptide text beside a SMILES is read from it. X2 = C[C@@](CCCCC=[*:3])(N[*:1])C(=O)[*:2]; R8 = C=CCCCCCC[C@@](C)(N)C(=O)O; S5 = C=CCCC[C@](C)(N)C(=O)O; Pra = C#CC[C@H](N)C(=O)O

Key:
TERT-RPE1 = assay: Effect on time length of mitosis in human RPE-1 cells at 50 uM measured for 10 to 24 hrs by bright field microscopy; format: functional, cell-based; conditions: time 10-24 hrs
HeLa [1] = assay: (§1) Inhibition of recombinant APC/C/cdc20 (unknown origin) in metaphase-synchronized human HeLa cells co-expressing GST-tagged UBA1/UBE2C/methylated ubiquitin using RD680-labeled securin as substrate at 100 uM measured after 45 mins in presence of ATP by immuno-precipitation method; format: cell-based
[2] = target: Anaphase-promoting complex subunit 11 (Homo sapiens) (UniProt Q9NYG5); assay: Binding affinity to APC11 (unknown origin) assessed as binding free energy
Chain of Anaphase-promoting complex subunit 11 (Homo sapiens) (Q9NYG5 whole entry, one chain of several): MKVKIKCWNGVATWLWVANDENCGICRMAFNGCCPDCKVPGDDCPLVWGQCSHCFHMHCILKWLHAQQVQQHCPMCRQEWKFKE

HeLa [3] = assay: Inhibition of recombinant APC/C/cdc20 (unknown origin) in metaphase-synchronized human HeLa cells co-expressing GST-tagged UBA1/UBE2D1/methylated ubiquitin using RD680-labeled securin as substrate at 100 uM measured after 45 mins in presence of ATP by immuno-precipitation method; format: cell-based
[4] = Drug localization in human HeLa cells assessed as punctate pattern formation at 50 uM incubated for 10 hrs by AF488 dye based analysis; format: ADME, cell-based
HeLa [5] = assay: as §1, with “substrate assessed as maximum inhibition” for “substrate”, “15” for “45”; format: cell-based
[6] = target: E3 ubiquitin-protein ligase Mdm2 (Homo sapiens) (UniProt Q00987); assay: Binding affinity to MDM2 in asynchronously growing human HeLa cells incubated for 30 mins by pull down assay; format: cell-based
Chain of E3 ubiquitin-protein ligase Mdm2 (Homo sapiens) (Q00987 whole entry, looked up): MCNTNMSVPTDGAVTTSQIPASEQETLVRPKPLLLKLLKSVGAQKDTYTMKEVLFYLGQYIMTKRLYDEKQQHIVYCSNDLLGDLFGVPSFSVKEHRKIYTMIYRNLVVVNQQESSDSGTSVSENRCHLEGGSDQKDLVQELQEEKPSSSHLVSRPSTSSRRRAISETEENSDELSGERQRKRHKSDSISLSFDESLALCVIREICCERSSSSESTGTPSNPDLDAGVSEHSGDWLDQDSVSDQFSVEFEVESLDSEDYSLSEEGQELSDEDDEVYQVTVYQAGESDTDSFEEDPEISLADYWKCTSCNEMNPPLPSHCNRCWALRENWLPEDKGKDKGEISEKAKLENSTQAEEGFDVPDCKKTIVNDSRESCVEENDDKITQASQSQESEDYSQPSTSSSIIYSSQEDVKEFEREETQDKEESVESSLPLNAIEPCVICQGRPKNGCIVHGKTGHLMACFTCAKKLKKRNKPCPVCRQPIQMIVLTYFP

[7] = target: Anaphase-promoting complex subunit 11 (Homo sapiens) (UniProt Q9NYG5); assay: Binding affinity to APC11 in asynchronously growing human HeLa cells incubated for 30 mins by pull down assay; format: cell-based
[8] = target: E3 ubiquitin-protein ligase CBL (Homo sapiens) (UniProt P22681); assay: Binding affinity to c-CBL in asynchronously growing human HeLa cells incubated for 30 mins by pull down assay; format: cell-based

Compound | inhibition (HeLa [1]) | deltaG [2] | inhibition (HeLa [3]) | also measured
CC[C@H](C)[C@@H]1NC(=O)[C@H](CCC(=O)O)NC(=O)[C@H](CC(C)C)NC(=O)[C@@H](CCCCN)NC(=O)[C@](C)(NC(=O)[C@H](Cc2c[nH]c3ccccc23)NC(=O)[C@H](Cc2c[nH]c3ccccc23)NC(=O)[C@H](CCC(=O)O)NC(C)=O)CCCCCC/C=C\CCC[C@@](C)(C(=O)N[C@@H](CCCNC(=N)N)C(=O)N[C@@H](CCCNC(=N)N)C(=O)N[C@@H](C)C(N)=O)NC(=O)[C@H](CCCNC(=N)N)NC(=O)[C@H](CCC(N)=O)NC1=O | Active; Compound Exerted Better Inhibitory Effect Than Tame |  |  | Activity (TERT-RPE1): No effect
CC(=O)N[C@H]1CSSC[C@@H](C(=O)N[C@@H](CCC(=O)O)C(=O)N[C@@H](Cc2c[nH]c3ccccc23)C(=O)N[C@@H](CCCNC(=N)N)C(=O)N[C@@H](Cc2ccc(O)cc2)C(N)=O)NC(=O)[C@H](Cc2cnc[nH]2)NC(=O)[C@H](Cc2c[nH]c3ccccc23)NC(=O)[C@H](CCC(N)=O)NC(=O)[C@H](CO)NC(=O)[C@@H]2CCCN2C(=O)CNC(=O)[C@H](C)NC(=O)[C@H](CCC(=O)O)NC1=O (Ac-CEAGPSQWHCEWRY-NH2; disulfide 1-10) |  | -19.6 kcal/mol | inactive | 
CC(=O)N[C@H]1CSSC[C@@H](C(=O)N[C@H](C(=O)N[C@@H](Cc2c[nH]c3ccccc23)C(=O)N[C@@H](CCCNC(=N)N)C(=O)N[C@@H](Cc2ccc(O)cc2)C(N)=O)[C@@H](C)O)NC(=O)[C@H](Cc2cnc[nH]2)NC(=O)[C@H](Cc2c[nH]c3ccccc23)NC(=O)[C@H](CCC(N)=O)NC(=O)[C@H](CO)NC(=O)[C@@H]2CCCN2C(=O)CNC(=O)[C@H](C)NC(=O)[C@H](CCC(=O)O)NC1=O (Ac-CEAGPSQWHCTWRY-NH2; disulfide 1-10) |  | -18.3 kcal/mol | inactive | 
CC(=O)N[C@@H](CCC(=O)O)C(=O)N[C@@H](Cc1c[nH]c2ccccc12)C(=O)N[C@@H](Cc1c[nH]c2ccccc12)C(=O)N[C@]1(C)CCCCCC/C=C\CCC[C@@](C)(C(=O)N[C@@H](CCCNC(=N)N)C(=O)N[C@@H](CCCNC(=N)N)C(=O)N[C@@H](C)C(N)=O)NC(=O)[C@H](CCCNC(=N)N)NC(=O)[C@H](CCC(N)=O)NC(=O)[C@H](CC(C)C)NC(=O)[C@H](CCC(=O)O)NC(=O)[C@H](CC(C)C)NC(=O)[C@H](CCCCN)NC1=O (Ac-EWW[R8]KLELQR[S5]RRA-NH2; staple (Z) 4-11) | Active; Compound Exerted Better Inhibitory Effect Than Tame |  |  | 
C#CC[C@H](NC(=O)[C@H](Cc1c[nH]c2ccccc12)NC(=O)[C@H](CCC(=O)O)NC(C)=O)C(=O)N[C@]1(C)CCCCCC/C=C\CCCC[C@@](C)(C(=O)N[C@@H](CCCNC(=N)N)C(=O)N[C@@H](CCCNC(=N)N)C(=O)N[C@@H](C)C(N)=O)NC(=O)[C@H](CCCNC(=N)N)NC(=O)[C@H](CCC(N)=O)NC(=O)[C@H]([C@@H](C)CC)NC(=O)[C@H](CCC(=O)O)NC(=O)[C@H](CCCCN)NC(=O)[C@H]([C@@H](C)CC)NC1=O (Ac-EW[Pra][R8]IKEIQR[X2]RRA-NH2; staple (Z) 4-11) |  |  |  | Drug uptake [4]: Active
CC(=O)N[C@@H](CCCNC(=N)N)C(=O)N[C@H]1CSSC[C@@H](C(=O)N[C@@H](CCCNC(=N)N)C(N)=O)NC(=O)[C@H](Cc2c[nH]c3ccccc23)NC(=O)[C@H](Cc2ccccc2)NC(=O)[C@H]([C@@H](C)O)NC(=O)[C@H](CCC(=O)O)NC(=O)[C@@H]2CCCN2C(=O)CNC(=O)[C@H](Cc2c[nH]c3ccccc23)NC(=O)[C@H](Cc2cnc[nH]2)NC1=O (Ac-RCHWGPETFWCR-NH2; disulfide 2-11) | Active | -21.1 kcal/mol | Active | 
CC(=O)N[C@@H](CCCNC(=N)N)C(=O)N[C@H]1CSSC[C@@H](C(=O)N[C@@H](CCCNC(=N)N)C(N)=O)NC(=O)[C@H](Cc2c[nH]c3ccccc23)NC(=O)[C@H](Cc2ccccc2)NC(=O)[C@H]([C@@H](C)O)NC(=O)[C@H](CCCNC(=N)N)NC(=O)[C@@H]2CCCN2C(=O)CNC(=O)[C@H](Cc2c[nH]c3ccccc23)NC(=O)[C@H](Cc2cnc[nH]2)NC1=O (Ac-RCHWGPRTFWCR-NH2; disulfide 2-11) | Active | -25.6 kcal/mol | Active | inhibition (HeLa [5]): Active
CC(=O)N[C@@H](CCCNC(=N)N)C(=O)N[C@H]1CSSC[C@@H](C(=O)N[C@@H](CCCNC(=N)N)C(N)=O)NC(=O)[C@H](Cc2c[nH]c3ccccc23)NC(=O)[C@H](Cc2ccccc2)NC(=O)[C@H]([C@@H](C)O)NC(=O)[C@H](CCC(=O)O)NC(=O)[C@@H]2CCCN2C(=O)CNC(=O)[C@H](Cc2c[nH]c3ccccc23)NC(=O)[C@H](CO)NC1=O (Ac-RCSWGPETFWCR-NH2; disulfide 2-11) | Active | -24.2 kcal/mol | Active | 
CC(=O)N[C@@H](CCCNC(=N)N)C(=O)N[C@@H](CCCNC(=N)N)C(=O)N[C@@H](CCCCN)C(=O)N[C@]1(C)CCCCCC/C=C\CCC[C@@](C)(C(=O)N[C@H](C(=O)N[C@@H](CCCNC(=N)N)C(=O)N[C@@H](Cc2ccc(O)cc2)C(N)=O)C(C)C)NC(=O)[C@H](CCCNC(=N)N)NC(=O)[C@H](C)NC(=O)[C@H](CCCNC(=N)N)NC(=O)[C@H](CCC(=O)O)NC(=O)[C@H](CCC(N)=O)NC(=O)[C@H](C)NC1=O (Ac-RRK[R8]AQERAR[S5]VRY-NH2; staple (Z) 4-11) | inactive |  |  | 
CC[C@H](C)[C@@H]1NC(=O)[C@@](C)(NC(=O)[C@H](CCC(N)=O)NC(=O)[C@@H]2CCCN2C(=O)[C@H](Cc2c[nH]c3ccccc23)NC(=O)[C@H](CCCNC(=N)N)NC(C)=O)CCC/C=C/CCC[C@@](C)(C(=O)N[C@@H](CCC(N)=O)C(=O)N[C@H](C(=O)N[C@@H](CCCNC(=N)N)C(=O)N[C@@H](Cc2c[nH]c3ccccc23)C(=O)N[C@@H](Cc2c[nH]c3ccccc23)C(N)=O)C(C)C)NC(=O)[C@H](CC(=O)O)NC(=O)[C@H](CCCCN)NC1=O (Ac-RWPQ[S5]IKD[S5]QVRWW-NH2; staple (E) 5-9) | Active; Compound Exerted Better Inhibitory Effect Than Tame |  |  | Activity (TERT-RPE1): No effect
CC(=O)N[C@@H](CCCNC(=N)N)C(=O)N[C@@H](Cc1c[nH]c2ccccc12)C(=O)N1CCC[C@H]1C(=O)N[C@@H](CCC(N)=O)C(=O)N[C@@]1(C)CCC/C=C/CCC[C@@](C)(C(=O)N[C@@H](CCC(N)=O)C(=O)N[C@H](C(=O)N[C@@H](CCCNC(=N)N)C(=O)N[C@@H](CCCNC(=N)N)C(=O)N[C@@H](Cc2c[nH]c3ccccc23)C(N)=O)C(C)C)NC(=O)[C@H](CC(=O)O)NC(=O)[C@H](Cc2c[nH]c3ccccc23)NC(=O)[C@H](CCCCN)NC1=O (Ac-RWPQ[S5]KWD[S5]QVRRW-NH2; staple (E) 5-9) | Active; Compound Exerted Better Inhibitory Effect Than Tame |  |  | Activity (TERT-RPE1): No effect
C#CC[C@H](NC(=O)[C@@H]1CCCN1C(=O)[C@H](Cc1c[nH]c2ccccc12)NC(=O)[C@H](CCCNC(=N)N)NC(C)=O)C(=O)N[C@@]1(C)CCC/C=C/CCC[C@@](C)(C(=O)N[C@@H](CCC(N)=O)C(=O)N[C@H](C(=O)N[C@@H](CCCNC(=N)N)C(=O)N[C@@H](CCCNC(=N)N)C(=O)N[C@@H](Cc2c[nH]c3ccccc23)C(N)=O)C(C)C)NC(=O)[C@H](CC(=O)O)NC(=O)[C@H](Cc2c[nH]c3ccccc23)NC(=O)[C@H](CCCCN)NC1=O (Ac-RWP[Pra][S5]KWD[S5]QVRRW-NH2; staple (E) 5-9) |  |  |  | Activity (TERT-RPE1): No effect; Activity [6]: inactive; Activity [7]: Active; Drug uptake [4]: Active; Activity [8]: inactive
CC(=O)N[C@H](C(=O)N[C@@H](Cc1cnc[nH]1)C(=O)N[C@H]1CSSC[C@@H](C(=O)N[C@@H](CCC(N)=O)C(=O)N[C@@H](CCCNC(=N)N)C(=O)N[C@H](C(N)=O)C(C)C)NC(=O)[C@H](CC(N)=O)NC(=O)[C@H](Cc2c[nH]c3ccccc23)NC(=O)[C@H](CCCNC(=N)N)NC(=O)[C@H](Cc2c[nH]c3ccccc23)NC(=O)[C@H]([C@@H](C)O)NC(=O)[C@H](CCC(=O)O)NC(=O)[C@@H]2CCCN2C(=O)[C@H](CC(=O)O)NC(=O)[C@H](CC(=O)O)NC1=O)[C@@H](C)O (Ac-THCDDPETWRWNCQRV-NH2; disulfide 3-13) | Active | -29.4 kcal/mol | Active | inhibition (HeLa [5]): Active
C[C@@H](O)[C@H](NC(=O)[C@H](CC(=O)O)NC(=O)CN)C(=O)N[C@H]1CSSC[C@@H](C(=O)N[C@@H](CCC(N)=O)C(=O)N[C@@H](CCCNC(=N)N)C(=O)N[C@@H](Cc2cnc[nH]2)C(=O)O)NC(=O)[C@H](CC(N)=O)NC(=O)[C@H](Cc2c[nH]c3ccccc23)NC(=O)[C@H](CCCNC(=N)N)NC(=O)[C@H](Cc2c[nH]c3ccccc23)NC(=O)[C@H]([C@@H](C)O)NC(=O)[C@H](CCC(=O)O)NC(=O)[C@@H]2CCCN2C(=O)[C@H](CC(=O)O)NC(=O)[C@H](CC(=O)O)NC1=O (H-GDTCDDPETWRWNCQRH-OH; disulfide 4-14) | Active | -29.4 kcal/mol | Active | 
C[C@@H](O)[C@H](NC(=O)[C@H](CCCNC(=N)N)NC(=O)[C@@H]1CSSC[C@H](NC(=O)[C@H](CCCNC(=N)N)NC(=O)CN)C(=O)N[C@@H](Cc2cnc[nH]2)C(=O)N[C@@H](Cc2c[nH]c3ccccc23)C(=O)NCC(=O)N2CCC[C@H]2C(=O)N[C@@H](CCC(=O)O)C(=O)N[C@@H]([C@@H](C)O)C(=O)N[C@@H](Cc2ccccc2)C(=O)N[C@@H](Cc2c[nH]c3ccccc23)C(=O)N1)C(=O)O (H-GRCHWGPETFWCRT-OH; disulfide 3-12) |  | -19.4 kcal/mol | Active | 
